Reference: patent US11478513B2, “Cutibacterium avidum strain, and composition for preventing or treating atopic dermatitis, comprising strain or cultured product thereof” (priority 2018, dated 2022)

Assays:
[1] = tested on: Staphylococcus aureus KCTC 1621; assay: Growth inhibition, overlay clear zone test (S. aureus); type: cell-based; conditions: RCM agar overlay, anaerobic, 37° C., about 40 hours; triclosan 10 mg/ml
Procedure: (§1) The effect of growth inhibition of S. aureus and C. acnes was confirmed by observing formation of a clear zone. […] The experiment was progressed, expecting that S. aureus and C. acnes around Cutibacterium avidum GENSC01 could not grow and they became transparent, if Cutibacterium avidum GENSC01 had the effect of inhibiting the growth of bacteria. The Cutibacterium avidum GENSC01 culture broth was collected with a platinum loop and was anaerobically cultured in a thin RCM agar plate at 37° C. for 72 hours by drawing a line about 2.5 cm. After confirming that Cutibacterium avidum GENSC01 sufficiently grew, S. aureus and C. acnes strains adjusted to 10^4 cfu/ml were inoculated in 10 ml RCM agar at about 45° C. which was not yet solidified, and they were well suspended before the medium was hardened, and they were evenly solidified by pouring them on the agar plate in which Cutibacterium avidum GENSC01 grew. In the solidified agar plate, S. aureus and C. acnes were further cultured anaerobically at 37° C. for about 40 hours and about 72 hours, respectively, to observe the size of the clear zone appearing around Cutibacterium avidum GENSC01. As the negative control group, phosphate-buffered saline (PBS) was used, and as the positive control group, triclosan was used, and S. aureus and C. acnes were treated at an amount of 10 mg/ml and 200 mg/ml, respectively.

[2] = tested on: Cutibacterium acnes ATCC 6919; assay: Growth inhibition, overlay clear zone test (C. acnes); type: cell-based; conditions: RCM agar overlay, anaerobic, 37° C., about 72 hours; triclosan 200 mg/ml
Procedure: as §1

[3] = tested on: IL-6; assay: IL-6 RNA expression in HaCaT cells treated with heat-treated C. acnes; type: cell-based, human; conditions: pre-treated 1 hour, heat-treated C. acnes (100MOI) 4 hours, real-time PCR; FIG. 12
Procedure: (§2) At first, GENSCO1 fermented filtrates were pre-treated for 1 hour to cells in which 2×10^5 of HaCaT human keratinocyte lines were attached in a 6-well plate, respectively, by culturing them in a 37° C. and 5% CO2 incubator for 24 hours. Then, the heat-treated C. acnes (100MOI) was treated and was reacted for 4 hours. Then, after extracting RNA for each sample, the RNA expression for the inflammation response cytokine factors, IL-6 and IL-8 was confirmed by real-time PCR.

[4] = tested on: IL-8; assay: IL-8 RNA expression in HaCaT cells treated with heat-treated C. acnes; type: cell-based, human; conditions: pre-treated 1 hour, heat-treated C. acnes (100MOI) 4 hours, real-time PCR; compared to control group induced to C. acnes; FIG. 11
Procedure: as §2

[5] = tested on: HaCaT cells; assay: Cytotoxicity (MTT) in HaCaT cells; type: cell-based, human; conditions: experimental group in which rosmarinic acid was added, 48 hours
Procedure: To evaluate the cytotoxicity of fermented filtrates prepared in the Example 3, the following experiment was progressed. HaCaT cells were attached on a 96-well cell culture plate for 24 hours at 5×10^3 cells/well each and then the test group samples were added by concentration to culture it under the condition of 5% CO2 and 37° C. for 48 hours. 48 hours later, the cultured cell medium was removed, and 0.5 mg/ml dimethylthiazol-2-y1)-2-5-diphenyltetrazolium bromide (MTT) formazan solution was treated to cells, and they were reacted for 4 hours, and after the time passage, all the cell medium was removed and the formazan solution was dissolved by DMSO and then the absorbance was measured at 570 nm with SpectraMax M2. Then, the survival rate of the HaCaT cell line was calculated by converting with the equation of O.Dsample/O.Dcontrol×100.

In the case of `Oc1cc(Cl)ccc1Oc1ccc(Cl)cc1Cl` [triclosan], the “growth inhibition of S. aureus (clear zone)” value [1] is reported as “the clear zone was observed, but it had much smaller area than GENSC01 treatment” and the “growth inhibition of C. acnes (clear zone)” value [2] is reported as “the clear zone was observed, but it had much smaller area than GENSC01 treatment”.
In the case of `O=C(/C=C/c1ccc(O)c(O)c1)O[C@H](Cc1ccc(O)c(O)c1)C(=O)O` [rosmarinic acid], the “expression of IL-6” value [3] is reported as “reduced at a similar level”, the “IL-8 expression (inflammation response)” value [4] is reported as “inflammation response was reduced” and the cell survival rate [5] is reported as “could be increased”.
